Reference: publication PMC8187479, “Sugar phosphate activation of the stress sensor eIF2B” (Nature Communications, 2021)
Residue numbers refer to the chain shown, from its start. Where “and” joins values, the source holds several entries; their conditions need not be identical. Identical values can stand only once. Like-named read-outs stand apart in the source and are kept apart here. Values belong to the compound of their own block, whether it stands above or below them.

Legend:
eIF2B = target: T1, eIF2B (Homo sapiens, UniProt P49770+Q14232+Q9UI10); assay: eIF2B GEF activity assay, unbiased metabolite screen (Bodipy-FL-GDP release); assay type: biochemical; conditions: 10 μM metabolite
T1 construct: made in house; host or cells: eIF2Bα: E. coli BL21(DE3)
T1 sequence (P49770 whole entry, one chain of several): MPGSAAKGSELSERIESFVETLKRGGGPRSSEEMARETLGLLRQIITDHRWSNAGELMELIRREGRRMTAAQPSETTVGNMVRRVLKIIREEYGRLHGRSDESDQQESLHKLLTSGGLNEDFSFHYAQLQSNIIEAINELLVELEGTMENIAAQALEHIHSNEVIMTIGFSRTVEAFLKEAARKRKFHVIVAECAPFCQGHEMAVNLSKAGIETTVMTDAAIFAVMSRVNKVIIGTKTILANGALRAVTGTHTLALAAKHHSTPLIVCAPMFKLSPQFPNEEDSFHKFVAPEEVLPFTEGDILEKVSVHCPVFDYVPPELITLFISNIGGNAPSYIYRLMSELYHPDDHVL
T1 sequence (Q9UI10 whole entry, one chain of several): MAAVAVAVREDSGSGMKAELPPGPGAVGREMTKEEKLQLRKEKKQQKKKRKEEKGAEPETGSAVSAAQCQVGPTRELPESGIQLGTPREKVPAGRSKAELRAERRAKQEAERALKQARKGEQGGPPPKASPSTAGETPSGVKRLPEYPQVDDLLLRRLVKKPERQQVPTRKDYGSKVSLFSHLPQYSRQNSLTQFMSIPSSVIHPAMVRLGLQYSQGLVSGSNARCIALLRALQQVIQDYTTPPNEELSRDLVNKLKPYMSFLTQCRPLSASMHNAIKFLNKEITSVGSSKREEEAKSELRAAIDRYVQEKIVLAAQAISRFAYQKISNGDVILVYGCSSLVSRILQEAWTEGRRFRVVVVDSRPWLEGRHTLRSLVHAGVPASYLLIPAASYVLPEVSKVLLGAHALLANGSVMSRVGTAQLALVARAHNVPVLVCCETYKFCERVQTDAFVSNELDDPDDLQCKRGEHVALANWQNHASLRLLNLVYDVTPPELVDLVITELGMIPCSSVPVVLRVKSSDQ
T1 sequence (Q9NR50 whole entry partner, one chain of several): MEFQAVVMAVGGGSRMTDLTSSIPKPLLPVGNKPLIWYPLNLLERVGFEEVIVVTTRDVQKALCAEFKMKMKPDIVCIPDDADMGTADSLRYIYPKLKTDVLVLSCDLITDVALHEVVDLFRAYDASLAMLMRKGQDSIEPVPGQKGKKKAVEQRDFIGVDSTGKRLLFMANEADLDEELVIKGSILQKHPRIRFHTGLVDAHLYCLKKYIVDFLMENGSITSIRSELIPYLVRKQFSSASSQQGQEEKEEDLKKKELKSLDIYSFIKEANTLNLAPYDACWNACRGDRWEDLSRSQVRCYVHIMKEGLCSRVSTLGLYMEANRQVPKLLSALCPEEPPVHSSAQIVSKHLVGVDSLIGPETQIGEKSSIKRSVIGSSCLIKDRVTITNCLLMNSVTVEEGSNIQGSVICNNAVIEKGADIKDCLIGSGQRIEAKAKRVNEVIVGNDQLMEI
T1 sequence (Q13144 whole entry partner, one chain of several): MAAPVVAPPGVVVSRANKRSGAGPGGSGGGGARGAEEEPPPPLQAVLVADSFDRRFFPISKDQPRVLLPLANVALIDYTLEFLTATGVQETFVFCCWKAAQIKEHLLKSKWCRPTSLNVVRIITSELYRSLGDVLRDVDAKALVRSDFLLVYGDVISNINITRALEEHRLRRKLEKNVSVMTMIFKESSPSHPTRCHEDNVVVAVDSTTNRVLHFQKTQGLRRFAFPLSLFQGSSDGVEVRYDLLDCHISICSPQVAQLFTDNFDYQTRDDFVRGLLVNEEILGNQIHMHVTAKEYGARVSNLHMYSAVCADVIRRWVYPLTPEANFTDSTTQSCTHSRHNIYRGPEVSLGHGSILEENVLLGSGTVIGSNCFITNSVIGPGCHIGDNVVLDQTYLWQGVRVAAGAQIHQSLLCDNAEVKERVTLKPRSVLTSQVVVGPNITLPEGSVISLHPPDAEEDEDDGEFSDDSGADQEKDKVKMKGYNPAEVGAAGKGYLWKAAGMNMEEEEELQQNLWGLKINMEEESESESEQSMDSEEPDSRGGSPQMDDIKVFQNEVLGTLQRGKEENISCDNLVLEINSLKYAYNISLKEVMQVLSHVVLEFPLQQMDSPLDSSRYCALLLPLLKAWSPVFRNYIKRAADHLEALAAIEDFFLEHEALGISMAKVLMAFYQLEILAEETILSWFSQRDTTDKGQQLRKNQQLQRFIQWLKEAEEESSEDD
Procedure: Bodipy-FL-GDP-loaded eIF2 was used as a substrate for recombinant eIF2B. The assay was performed in 384-well plates. Reactions were read on a SpectraMax i3x plate reader (Molecular Devices) using the instrument’s Softmax Pro software with the following parameters: plate temperature = 25 °C; excitation wavelength = 485 nm (15 nm width); emission wavelength = 535 nm (25 nm width); read duration = 30 min at 45 s intervals. Data were analyzed in Prism. GDP release half-lives were calculated by fitting single-exponential decay curves.
For unbiased screening, MIDAS metabolite libraries at 10 mM stock concentration were dispensed into wells of the assay plate using an Echo Acoustic Liquid Handler (Labcyte). […] A single well was run for each metabolite. […] For targeted experiments with HEK293T lysates, the following conditions were used: 50 nM Bodipy-FL-GDP-loaded eIF2, 0.1 mM GDP, 1 mg/ml BSA, 0.1 or 0.3 mg/ml lysates.

eIF2Bα [1] = target: T2, eIF2Bα (Homo sapiens, UniProt Q14232); assay: MIDAS (mass spectrometry integrated with equilibrium dialysis) metabolite binding screen; conditions: for MIDAS result (enrichment in the protein chamber / hit status): eIF2Bα2, 50 μM per metabolite pool, 40 h dialysis at 4 °C
T2 construct: made in house; host or cells: E. coli BL21(DE3)
T2 sequence (Q14232 1-305): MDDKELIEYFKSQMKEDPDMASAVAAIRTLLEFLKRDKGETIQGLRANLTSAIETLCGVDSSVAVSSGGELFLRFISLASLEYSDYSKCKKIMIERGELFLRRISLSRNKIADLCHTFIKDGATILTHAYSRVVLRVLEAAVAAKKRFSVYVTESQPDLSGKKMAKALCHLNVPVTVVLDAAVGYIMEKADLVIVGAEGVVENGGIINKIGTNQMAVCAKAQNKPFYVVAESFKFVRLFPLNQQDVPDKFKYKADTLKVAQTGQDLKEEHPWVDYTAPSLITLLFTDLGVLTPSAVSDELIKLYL
Outline: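 Hits called at Storey q < 0.1 on z-scores of PCA-corrected log2 fold change between protein and metabolite chambers, quantified by FIA-MS in triplicate.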

eIF2Bα [2] = target: T2, eIF2Bα; assay: Differential scanning fluorimetry (Protein Thermal Shift), eIF2Bα Tm; assay type: binding; conditions: individual replicates Rep 1-4, control without metabolite about 64.1
Procedure: The effect of metabolite binding on eIF2Bα Tm was assessed using the Protein Thermal Shift assay (Thermo Fisher), following manufacturer’s instructions. Briefly, reaction conditions for each 20 μL reaction were: 1.1 μg (1.5 μM) of eIF2Bα, 5 μl Thermal Shift buffer, 1X Thermal Shift dye, and metabolites in dose response. Reactions were run in 384-well format on a QuantStudio 6 Flex instrument (Thermo Fisher). The resulting melt curves were analyzed using Protein Thermal Shift Software, and eIF2Bα Tms for each condition were calculated by fitting to the Boltzmann function.

eIF2Bα [3] = target: T2, eIF2Bα; assay: Isothermal titration calorimetry, wild-type eIF2Bα; assay type: binding
Procedure: (§1) Interactions between recombinant protein and sugar phosphates were conducted with a MicroCal PEAQ-ITC (Malvern Panalytical Inc.). Experiments were performed in 25 mM HEPES, 150 mM NaCl, pH 7.5 at 20 °C. The sugar phosphate concentration in the syringe was 1 mM or 1.5 mM, and ~3.5 μL aliquots were injected into cells containing 300 μL eIF2Bα or eIF2B(βδγε) at a concentration of 20–30 μM. The final titration curves were fitted using MicroCal ITC data analysis software, assuming a single binding site per monomer.

eIF2Bα^N208Y = target: T3, eIF2Bα^N208Y (Homo sapiens, UniProt Q14232, N208Y); assay: Isothermal titration calorimetry, eIF2Bα N208Y; assay type: binding; conditions: ITC
T3 construct: made in house; host or cells: E. coli BL21(DE3)
T3 sequence (Q14232 1-305 N208Y): T2 sequence (Q14232 1-305) with N208Y
Procedure: as §1

[4] = MIDAS metabolite binding screen with eIF2Bα, sheet "eIF2Ba"
[5] = MIDAS screen, sheet eIF2Ba, metabolites screened in pools 1-4, p-value and q-value given

Compound: Nc1ncnc2c1ncn2[C@@H]1O[C@H](COP(=O)(O)OP(=O)(O)O)[C@@H](O)[C@H]1O [ADP, Adenosine diphosphate]
effect on eIF2B GEF activity in the screen (eIF2B): a hit in this functional assay screen
log2(corrected fold change) (eIF2Bα [1]; [4]): -0.09804

Compound: O=C(COP(=O)(O)O)[C@@H](O)[C@H](O)[C@H](O)COP(=O)(O)O [Fructose-1,6-bisphosphate]
Tm of eIF2Bα (eIF2Bα [2]; 0.33 mM metabolite): 64.6451 °C and 64.2202 °C and 65.137 °C and 65.0552 °C
Tm of eIF2Bα (eIF2Bα [2]; 1 mM metabolite): 65.6845 °C and 64.643 °C and 66.191 °C and 66.0945 °C
Tm of eIF2Bα (eIF2Bα [2]; 3.3 mM metabolite): 65.4601 °C and 64.9088 °C and 65.6023 °C and 65.9064 °C
Tm of eIF2Bα (eIF2Bα [2]; 10 mM metabolite): 67.1254 °C and 66.1581 °C and 67.3047 °C and 67.21 °C

Compound: O=C[C@@H](O)[C@@H](O)[C@H](O)[C@H](O)COP(=O)(O)O [M6P, mannose-6-phosphate]
Kd (eIF2Bα [3]; ITC, wild-type eIF2Bα): 282 ± 35 µM
ITC binding isotherm, heat per mole of injectant (eIF2Bα [3]; molar ratio 0.225339): -1.246 kcal/mol
ITC binding isotherm, heat per mole of injectant (eIF2Bα [3]; molar ratio 0.415168): -1.08 kcal/mol
ITC binding isotherm, heat per mole of injectant (eIF2Bα [3]; molar ratio 0.606855): -1.012 kcal/mol
ITC binding isotherm, heat per mole of injectant (eIF2Bα [3]; molar ratio 0.8004): -0.9251 kcal/mol
ITC binding isotherm, heat per mole of injectant (eIF2Bα [3]; molar ratio 0.995804): -0.7798 kcal/mol
ITC binding isotherm, heat per mole of injectant (eIF2Bα [3]; molar ratio 1.19307): -0.7719 kcal/mol
ITC binding isotherm, heat per mole of injectant (eIF2Bα [3]; molar ratio 1.39219): -0.7333 kcal/mol
ITC binding isotherm, heat per mole of injectant (eIF2Bα [3]; molar ratio 1.59317): -0.643 kcal/mol
ITC binding isotherm, heat per mole of injectant (eIF2Bα [3]; molar ratio 1.796): -0.5884 kcal/mol
ITC binding isotherm, heat per mole of injectant (eIF2Bα [3]; molar ratio 2.0007): -0.5938 kcal/mol
ITC binding isotherm, heat per mole of injectant (eIF2Bα [3]; molar ratio 2.20725): -0.6099 kcal/mol
ITC binding isotherm, heat per mole of injectant (eIF2Bα [3]; molar ratio 2.41567): -0.5269 kcal/mol
ITC binding isotherm, heat per mole of injectant (eIF2Bα [3]; molar ratio 2.62594): -0.5106 kcal/mol
ITC binding isotherm, heat per mole of injectant (eIF2Bα [3]; molar ratio 2.83807): -0.4795 kcal/mol
ITC binding isotherm, heat per mole of injectant (eIF2Bα [3]; molar ratio 3.05206): -0.426 kcal/mol
ITC binding isotherm, heat per mole of injectant (eIF2Bα [3]; molar ratio 3.2679): -0.4467 kcal/mol
ITC binding isotherm, heat per mole of injectant (eIF2Bα [3]; molar ratio 3.48561): -0.4459 kcal/mol
ITC binding isotherm, heat per mole of injectant (eIF2Bα [3]; molar ratio 3.70517): -0.1953 kcal/mol
Tm of eIF2Bα (eIF2Bα [2]; 0.33 mM metabolite): 64.7587 °C and 64.5257 °C and 64.0751 °C and 63.7209 °C
Tm of eIF2Bα (eIF2Bα [2]; 1 mM metabolite): 66.0911 °C and 65.9704 °C and 65.2776 °C and 64.2935 °C
Tm of eIF2Bα (eIF2Bα [2]; 5 mM metabolite): 66.7846 °C and 66.6099 °C and 66.516 °C and 65.7833 °C
interaction with eIF2Bα N208Y (eIF2Bα^N208Y): does not interact

Compound: O=C[C@H](O)[C@H](O)[C@H](O)COP(=O)(O)O [Ribose-5-phosphate]
Tm of eIF2Bα (eIF2Bα [2]; 0.33 mM metabolite): 63.6082 °C and 63.1309 °C and 63.9035 °C and 63.9145 °C
Tm of eIF2Bα (eIF2Bα [2]; 1 mM metabolite): 65.8453 °C and 64.5885 °C and 66.0863 °C and 66.0043 °C
Tm of eIF2Bα (eIF2Bα [2]; 3.3 mM metabolite): 65.9356 °C and 65.2316 °C and 66.3491 °C and 65.7067 °C
Tm of eIF2Bα (eIF2Bα [2]; 10 mM metabolite): 67.199 °C and 66.1831 °C and 67.4737 °C and 67.2666 °C

Compound: O=c1ccn([C@@H]2O[C@H](COP(=O)(O)O)[C@@H](O)[C@H]2O)c(=O)[nH]1 [UMP, Uridine monophosphate]
Tm of eIF2Bα (eIF2Bα [2]; 0.33 mM metabolite): 64.124 °C and 63.8726 °C and 64.7063 °C and 64.4005 °C
Tm of eIF2Bα (eIF2Bα [2]; 1 mM metabolite): 65.4937 °C and 64.6631 °C and 66.2688 °C and 66.0835 °C
Tm of eIF2Bα (eIF2Bα [2]; 5 mM metabolite): 67.0947 °C and 66.2443 °C and 67.297 °C and 67.2174 °C
effect on eIF2B GEF activity in the screen (eIF2B): a hit in this functional assay screen
log2(corrected fold change) (eIF2Bα [1]; [5]): 1.855
MIDAS result (enrichment in the protein chamber / hit status) (eIF2Bα [1]): a strong hit in MIDAS

Compound: O=C(O)c1cc(O)c2cccc(O)c2n1 [Xanthurenic acid]
log2(corrected fold change) (eIF2Bα [1]; [4]): -0.07533

Compound: O=C(O)/C=C(/CC(=O)O)C(=O)O [cis-Aconitic acid]
log2(corrected fold change) (eIF2Bα [1]; [4]): 0.003317

Compound: N[C@@H](Cc1ccc(O)c(I)c1)C(=O)O [iodotyrosine]
MIDAS result (enrichment in the protein chamber / hit status) (eIF2Bα [1]): significantly enriched

Compound: Cytidine monophosphate
log2(corrected fold change) (eIF2Bα [1]; [5]): 1.354

Compound: D-Glucose 6-phosphate
log2(corrected fold change) (eIF2Bα [1]; [5]): -0.1344

Compound: Glucose-6-phosphate
Tm of eIF2Bα (eIF2Bα [2]; 0.33 mM metabolite): 64.7198 °C and 64.0494 °C and 65.062 °C and 64.7755 °C
Tm of eIF2Bα (eIF2Bα [2]; 1 mM metabolite): 65.3152 °C and 64.2994 °C and 65.8081 °C and 65.8236 °C
Tm of eIF2Bα (eIF2Bα [2]; 3.3 mM metabolite): 65.2749 °C and 64.6195 °C and 65.7728 °C and 65.1105 °C
Tm of eIF2Bα (eIF2Bα [2]; 10 mM metabolite): 66.5112 °C and 65.3473 °C and 66.6482 °C and 66.6125 °C

Compound: PIP3
log2(corrected fold change) (eIF2Bα [1]; [5]): 0.2943

Compound: Phosphatidic Acid
log2(corrected fold change) (eIF2Bα [1]; [5]): 0.1983

Compound: Phosphatidylcholine
log2(corrected fold change) (eIF2Bα [1]; [5]): -0.03855

More lines, main results first:

MIDAS result (enrichment in the protein chamber / hit status) (eIF2Bα [1]): most enriched metabolite identified
Compound: N[C@@H](Cc1ccc(O)cc1)C(=O)O [L-tyrosine]
Tm of eIF2Bα (eIF2Bα [2]; 0.33 mM metabolite): 64.527 °C and 64.3045 °C and 63.9825 °C and 63.5986 °C
Tm of eIF2Bα (eIF2Bα [2]; 1 mM metabolite): 65.9465 °C and 65.8614 °C and 65.2637 °C and 64.606 °C
Tm of eIF2Bα (eIF2Bα [2]; 5 mM metabolite): 66.2946 °C and 66.2026 °C and 66.1461 °C and 65.4309 °C

log2(corrected fold change) (eIF2Bα [1]; [4]): 0.0001312
Compound: OC[C@H]1O[C@@H](n2cnc3c(O)nc(O)nc32)[C@H](O)[C@@H]1O [Xanthosine]

log2(corrected fold change) (eIF2Bα [1]; [5]): -0.08707
Compound: OC[C@@H](O)[C@H](O)[C@@H](O)CO [Xylitol]

log2(corrected fold change) (eIF2Bα [1]; [4]): -0.07333
Compound: CCC(C)C(=O)NCC(=O)O (stereo not drawn) [a-Methylbutyrylglycine]

log2(corrected fold change) (eIF2Bα [1]; [5]): -0.4569
Compound: O=c1ccn([C@H]2C[C@H](O)[C@@H](COP(=O)(O)OP(=O)(O)OP(=O)(O)O)O2)c(=O)[nH]1 [dUTP]

log2(corrected fold change) (eIF2Bα [1]; [5]): 0.4135
Compound: Benzoate

log2(corrected fold change) (eIF2Bα [1]): 0.07073
Compound: Orotidine 5-monophosphate

log2(corrected fold change) (eIF2Bα [1]; [5]): 0.1728
Compound: PIP2

log2(corrected fold change) (eIF2Bα [1]; [5]): 0.09167
Compound: Phosphatidylethanolamine

log2(corrected fold change) (eIF2Bα [1]; [5]): 0.1451
Compound: Phosphatidylglycerol

log2(corrected fold change) (eIF2Bα [1]; [5]): 0.1166
Compound: Phosphatidylserine

log2(corrected fold change) (eIF2Bα [1]; [4]): -0.02264
Compound: Stachyose
